Key:
Type in all cases: biochemical
[1] = target: T1, human MutSbeta (Homo sapiens, UniProt P20585+P43246); assay: P33 SPA 1.1
T1 construct: Msh2(1-934), Gene ID NP_000242.1; Msh3(1-1137), Gene ID J04810.1
Procedure: P33 SPA: Enzyme human MutSbeta (Msh2(1-934), Gene ID NP_000242.1, Msh3(1-1137), Gene ID J04810.1) and 22 bp biotin-labeled DNA containing a GT-mismatch (purchased from Curia Global, TOP 5′-[…]-3′; BOT 3′-AGTAGCTAGGC - - - CGAAGTCTACC-5′-Biotin) were pre-incubated at equimolar concentration for 15 min at room temperature (“RT”) in assay buffer (25 mM HEPES pH=7.5, 150 mM KCl, 2 mM MgCl2, 2 mM GSH, 0.01% Tween-20). ATP (10 μL, 2× final concentration of γ-[^33P]-ATP (final 0.1 nM; Hartmann Analytic, FF-301) and cold ATP (final 2 μM)) was added to compounds (400 nL spotted as concentration response in 100% DMSO into wells of an OptiPlate) and pre-incubated for 30 min at RT. Then, enzyme with DNA was added (10 μL, 2× final concentration of 7 nM) and incubated for 60 min at 37° C. in a total volume of 20 μL per well. Decay of [^33P] with a half-life of 25.4 days was corrected by increasing the concentration of the labelled nucleotide with the appropriate factor; all steps with radioactive ATP were conducted behind appropriate shielding. Then, 20 μL of a 1:2 mix of ammonium molybdate (20 mg/mL Ammonium molybdate in 2.4 M HCl) and SPA beads (ProteinA SPA beads from Perkin Elmer Cat #RPNQ0019 at 7.5 mg/mL+1% azide) was added per well and incubated at RT for 2 min. Then, 40 μL of 7 M CsCl and 0.1 M citrate was added per well and incubated for 20 h at RT before measuring on the MicroBeta (top read mode, 1 min per well). For full plate processing, all reagents were transferred with a pipettor (Selma, CyBio) apart from the final reagent (CsCl+citrate) which was added with a dispenser (MultiFlo, BioTek). Data analysis during assay development was done with Prism GraphPad.
P33 SPA 11: For the SPA 1.1 assay, the addition of reagents was reversed, i.e. enzyme was first added to the compounds and pre-incubated followed by ATP addition; thus, the assay was aligned with ADP Glo 1.1 reagent addition order. The assay was repeated under similar conditions, and the results are shown below in Table 5B. It is contemplated the solubility of the compounds and/or varying test occasions may account for variability of assay results.

[2] = target: T1, human MutSbeta; assay: ADP Glo assay 2.1; conditions: 10 μM ATP, 7 nM enzyme; buffer with 5 mM GSH, 0.2% Ovalbumin
Procedure: (§1) ADP Glo assay 2.1: Enzyme human MutSbeta (Msh2(1-934), Gene ID NP_000242.1, Msh3(1-1137), Gene ID J04810.1) with 22 bp biotin-labeled DNA containing a GT-mismatch (purchased from Curia Global, TOP 5′-[…]-3′; BOT 3′-AGTAGCTAGGC - - - CGAAGTCTACC-5′-Biotin) was pre-incubated in assay buffer (25 mM HEPES pH=7.5, 150 mM KCl, 5 mM MgCl2, 5 mM GSH, 0.1% Pluronic F-127, 0.2% Ovalbumin) to allow formation of the enzyme-DNA complex. Plates with spotted compounds in serial dilutions in DMSO (80 nL) were filled with ATP (2 μL, 10 μM final concentration) followed by an incubation of 30 min at RT. Then, enzyme was added (2 μL, 7 nM final concentration) and the reaction was allowed to proceed for 60 min at 37° C. After the ATPase reaction, the commercially available “ADP-Glo Reagent” was added (incubate 40 min at RT) to deplete remaining ATP via the activity of […]. Subsequently, the commercially available “Kinase Detection Reagent” converted ADP to ATP via the activity of PEP and Pyruvate kinase. The ATP was then converted into light by Ultra-Glo Luciferase. The obtained luminescence was proportional to the ADP concentration generated during the initial ATPase reaction. The luminescence signal was measured with an Envision reader, raw data were analyzed towards controls (full reaction=0% inhibition; no reaction in absence of enzyme=100% inhibition) and IC50 curves were analyzed with the inhouse software Aplus.

[3] = target: T1, human MutSbeta; assay: ADP Glo assay 2.2; conditions: as 2.1 but buffer with 2 mM GSH
Procedure: as §1
ADP Glo assay 2.2: A similar protocol was used as in the ADP Glo Assay 2.1 above, except the following assay buffer was used: 25 mM HEPES pH=7.5, 150 mM KCl, 5 mM MgCl2, 2 mM GSH, 0.1% Pluronic F-127, 0.2% Ovalbumin. It is contemplated the solubility of the compounds and/or varying test occasions and/or assay conditions may account for variability of assay results.

[4] = Table 5A, enzyme first added to compounds, then ATP
[5] = Table 5B, assay repeated under similar conditions

T1 sequence (P43246 whole entry): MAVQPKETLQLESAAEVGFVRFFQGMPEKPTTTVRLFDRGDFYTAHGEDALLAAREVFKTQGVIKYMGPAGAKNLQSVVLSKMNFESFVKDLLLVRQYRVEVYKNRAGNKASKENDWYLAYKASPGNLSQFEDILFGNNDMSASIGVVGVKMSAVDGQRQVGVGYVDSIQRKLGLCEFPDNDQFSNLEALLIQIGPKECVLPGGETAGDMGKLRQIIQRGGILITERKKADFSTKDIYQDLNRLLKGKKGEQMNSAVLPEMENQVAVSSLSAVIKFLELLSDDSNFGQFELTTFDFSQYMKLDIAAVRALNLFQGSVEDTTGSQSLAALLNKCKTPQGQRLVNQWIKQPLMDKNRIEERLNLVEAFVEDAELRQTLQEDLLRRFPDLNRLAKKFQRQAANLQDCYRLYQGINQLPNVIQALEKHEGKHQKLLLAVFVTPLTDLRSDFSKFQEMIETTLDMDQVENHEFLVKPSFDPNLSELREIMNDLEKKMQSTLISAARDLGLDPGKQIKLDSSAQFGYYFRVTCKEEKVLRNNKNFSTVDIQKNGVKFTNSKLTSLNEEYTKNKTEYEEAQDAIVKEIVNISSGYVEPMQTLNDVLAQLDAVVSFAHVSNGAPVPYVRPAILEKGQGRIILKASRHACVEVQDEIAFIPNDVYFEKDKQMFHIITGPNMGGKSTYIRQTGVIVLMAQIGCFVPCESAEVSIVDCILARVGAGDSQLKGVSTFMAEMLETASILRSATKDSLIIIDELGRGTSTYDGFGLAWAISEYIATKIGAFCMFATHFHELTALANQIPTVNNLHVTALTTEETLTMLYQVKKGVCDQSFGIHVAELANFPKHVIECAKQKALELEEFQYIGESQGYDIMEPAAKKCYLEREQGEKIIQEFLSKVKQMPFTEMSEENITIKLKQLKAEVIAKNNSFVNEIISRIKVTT
T1 sequence (P20585 whole entry): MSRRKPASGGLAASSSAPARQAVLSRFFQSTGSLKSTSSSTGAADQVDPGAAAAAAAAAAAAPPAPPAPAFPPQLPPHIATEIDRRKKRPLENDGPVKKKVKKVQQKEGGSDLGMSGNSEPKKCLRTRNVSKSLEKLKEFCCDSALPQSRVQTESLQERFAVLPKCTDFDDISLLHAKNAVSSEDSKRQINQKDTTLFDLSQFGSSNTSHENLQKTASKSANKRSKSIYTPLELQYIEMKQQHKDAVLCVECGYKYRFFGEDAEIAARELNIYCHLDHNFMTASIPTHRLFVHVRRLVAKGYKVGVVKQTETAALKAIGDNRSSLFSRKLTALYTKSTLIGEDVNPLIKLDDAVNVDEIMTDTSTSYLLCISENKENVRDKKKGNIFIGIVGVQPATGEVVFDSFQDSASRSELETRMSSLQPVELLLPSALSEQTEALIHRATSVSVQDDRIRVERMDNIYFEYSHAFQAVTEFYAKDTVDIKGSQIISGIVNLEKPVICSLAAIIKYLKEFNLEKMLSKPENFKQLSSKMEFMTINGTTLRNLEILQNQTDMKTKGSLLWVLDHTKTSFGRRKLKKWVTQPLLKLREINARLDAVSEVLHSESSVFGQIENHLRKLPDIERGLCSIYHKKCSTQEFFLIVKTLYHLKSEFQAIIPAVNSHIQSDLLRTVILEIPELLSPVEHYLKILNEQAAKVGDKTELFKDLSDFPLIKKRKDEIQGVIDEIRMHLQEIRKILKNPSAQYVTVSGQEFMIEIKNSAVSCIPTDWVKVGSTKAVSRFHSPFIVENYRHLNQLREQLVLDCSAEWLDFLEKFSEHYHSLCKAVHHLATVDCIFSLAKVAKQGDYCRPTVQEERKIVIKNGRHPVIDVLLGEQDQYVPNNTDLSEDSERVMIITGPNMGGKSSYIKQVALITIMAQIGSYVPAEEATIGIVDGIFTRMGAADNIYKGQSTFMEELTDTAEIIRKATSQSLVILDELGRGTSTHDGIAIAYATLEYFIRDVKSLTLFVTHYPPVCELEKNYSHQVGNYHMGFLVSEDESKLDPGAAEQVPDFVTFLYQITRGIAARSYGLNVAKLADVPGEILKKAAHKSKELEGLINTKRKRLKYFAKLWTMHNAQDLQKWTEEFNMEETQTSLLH

SMILES | IC50 [1, 4] | IC50 [1, 5] | IC50 [2] | IC50 [3]
CN1CCN(c2nc(Nc3cccc(C4CC4C(=O)O)c3)c3nccnc3n2)CC1 (single isomer, unassigned) [Compound 47] | 59 µM | 56 µM | 55 µM | 38 µM
CN1CCN(c2nc(Nc3cccc(C4CC4C(=O)O)c3)c3nccnc3n2)CC1 (single isomer, unassigned) [Compound 48] | 12 µM | 9 µM | 13 µM | 27 µM
Cc1ccc(Nc2nc(N3CCCN(C)CC3)nc3nccnc23)cc1C [Compound 23, N-(3,4-dimethylphenyl)-2-(4-methyl-1,4-diazepan-1-yl)pteridin-4-amine] | 71 µM | 64 µM | ≥ 200 µM | 
Cc1ccc(Nc2nc(N3CCN(C(C)C)CC3)nc3nccnc23)cc1C [Compound 24] | 24 µM | 25 µM | 37 µM | 60 µM
Cc1cc(CNc2nc(N3CCN(C)CC3)nc3nccnc23)ccc1F [Compound 25] | 20 µM | 24 µM | 29 µM | 35 µM
Cc1cc(CNc2nc(N3CCN(C(C)C)CC3)nc3nccnc23)ccc1F [Compound 26] | 59 µM | 75 µM | 36 µM | 95 µM
Cc1ccc(CNc2nc(N3CCN(C)CC3)nc3nccnc23)cc1C [Compound 27] | 28 µM | 18 µM | 22 µM | 26 µM
Cc1ccc(CNc2nc(N3CCCN(C)CC3)nc3nccnc23)cc1C [Compound 28] | 55 µM | 131 µM | 38 µM | 82 µM
Cc1cc(CNc2nc(N3CCCN(C)CC3)nc3nccnc23)ccc1F [Compound 29] | 120 µM | 61 µM | ≥ 200 µM | 
COc1ccc(Nc2nc(N3CCN(C)CC3)nc3nccnc23)cc1Cl [Compound 30] | 23 µM | 28 µM | 23 µM | 25 µM
Cc1ccc(Nc2nc(N3CCN(C)[C@@H](C)C3)nc3nccnc23)cc1C [Compound 31] | 25 µM | 45 µM | 19 µM | 41 µM
Cc1ccc(Oc2nc(N3CCN(C)CC3)nc3nccnc23)cc1C [Compound 32] | 118 µM | 47 µM | ≥ 200 µM | 
CN1CCN(c2nc(Nc3cccc(Cl)c3)c3nccnc3n2)CC1 [Compound 33, N-(3-chlorophenyl)-2-(4-methylpiperazin-1-yl)pteridin-4-amine] | 44 µM | 34 µM | 35 µM | 43 µM
CN1CCN(c2nc(Nc3cccc(F)c3)c3nccnc3n2)CC1 [Compound 34] | 43 µM | 90 µM | ≥ 200 µM | 
CCC(=O)Nc1cccc(Nc2nc(N3CCCN(C)CC3)nc3nccnc23)c1 [Compound 35] | 80 µM | 55 µM | ≥ 200 µM | 
CCC(=O)Nc1cccc(Nc2nc(N3CCN(C)CC3)nc3nccnc23)c1 [Compound 37] | 34 µM | 119 µM | 71 µM | 97 µM
Cc1cnc2nc(N3CCN(C)CC3)nc(Nc3ccc(C)c(C)c3)c2n1 [Compound 38, N-(3,4-dimethylphenyl)-6-methyl-2-(4-methylpiperazin-1-yl)pteridin-4-amine] | 19 µM | 9.5 µM | 13 µM | 10 µM
Cc1cccc(Nc2nc(N3CCN(C)CC3)nc3nccnc23)c1C [Compound 39, N-(2,3-dimethylphenyl)-2-(4-methylpiperazin-1-yl)pteridin-4-amine] | 158 µM | 36 µM | ≥ 200 µM | 
COc1cccc(Nc2nc(N3CCN(C)CC3)nc3nccnc23)c1 [Compound 40] | 43 µM | 61 µM | 16 µM | 34 µM
Cc1cc(Nc2nc(N3CCN(C)CC3)nc3nccnc23)ccc1C(N)=O [Compound 41] |  | 50 µM | 28 µM | 50 µM
CN1CCN(c2nc(NCc3cccc(S(C)(=O)=O)c3)c3nccnc3n2)CC1 [Compound 42] |  | 108 µM | ≥ 200 µM | 119 µM
Cc1ccc(Nc2nc(N3CCN(C)CC3)nc3nccnc23)cc1S(N)(=O)=O [Compound 43] |  | 59 µM |  | 106 µM
CN1CCN(c2nc(NCc3cccc(S(N)(=O)=O)c3)c3nccnc3n2)CC1 [Compound 44] |  | 71 µM |  | 88 µM
Cc1ccc(Nc2nc(N3CCN(C)CC3)nc3nccnc23)cc1C(N)=O [Compound 45] | 38 µM | 84 µM | 55 µM | 76 µM
CC(=O)Nc1cccc(CNc2nc(N3CCN(C)CC3)nc3nccnc23)c1 [Compound 46] | 104 µM | 120 µM | 38 µM | 53 µM

Reference: patent US20240199624A1, “COMPOUNDS, COMPOSITIONS, AND METHODS” (CHDI Foundation, Inc., priority 2022, published 2024)
